# Reference: BindingDB's records for doi:10.1111/cbdd.12842 (Jagiellonian University Medical College, 2017)
# Structures can show the parent of a compound that is named as a salt.
# Molecular target: T1, 5-hydroxytryptamine receptor 1A (Homo sapiens, UniProt P08908)
# T1 sequence (P08908 whole entry): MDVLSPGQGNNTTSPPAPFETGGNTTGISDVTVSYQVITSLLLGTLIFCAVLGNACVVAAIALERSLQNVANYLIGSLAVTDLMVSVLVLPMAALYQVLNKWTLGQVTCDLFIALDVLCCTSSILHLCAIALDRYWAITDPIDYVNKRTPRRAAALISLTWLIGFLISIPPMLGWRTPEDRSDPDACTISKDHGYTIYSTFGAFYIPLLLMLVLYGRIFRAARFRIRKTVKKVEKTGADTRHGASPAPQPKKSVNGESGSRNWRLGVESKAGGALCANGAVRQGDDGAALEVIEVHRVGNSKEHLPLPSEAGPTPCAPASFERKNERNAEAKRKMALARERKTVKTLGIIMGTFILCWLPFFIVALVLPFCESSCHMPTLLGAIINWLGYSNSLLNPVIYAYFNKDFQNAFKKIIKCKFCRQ
# Assay: Radioligand Binding Assay ([3H]-8-OH-DPAT)
# Settings: pH 7.4
# Protocol: Binding experiments were conducted in 96-well microplates in a total volume of 250 μL of buffer (50 mM Tris-HCl pH 7.4, 10 mM MgCl2, 0.5 mM EDTA). Reaction mix included 50 μL solution of test compound, 50 μL of [3H]-8-OH-DPAT, and 150 μL of diluted membranes or the tissue suspension. Incubation condition: 60 min at 27 °C.
row,Ki,Structure (SMILES)
1,0.659 µM,"CCC(CO)NCCOc1ccc2oc3ccccc3c(=O)c2c1 (stereo not drawn) [R,S-2-{2-[(1-hydroxybutan-2-yl]amino)ethoxy}-9H-xanthen-9-one (9)]"
2,0.32 µM,"CCC(O)CNCCOc1ccc2oc3ccccc3c(=O)c2c1 (stereo not drawn) [R,S-2-{2-[(2-hydroxybutyl)amino]ethoxy}-9H-xanthen-9-one hydrochloride (8a)]"

row,Structure (SMILES),Ki
1,"CCC(CO)NCCCOc1ccc2oc3ccccc3c(=O)c2c1 (stereo not drawn) [R,S-2-{3-[(1-hydroxybutan-2-yl)amino]propoxy}-9H-xanthen-9-one (12)]",> 5 µM
